The text below walks through data of article PMC9881875 (bioRxiv, 2023).

Experiment [1] has as its target T1, DLG1 PDZ1 (DLG1–1) (Homo sapiens, UniProt Q12959). The experiment in a line: Fluorescence polarization competition, DLG1–1. The experiment is classed as binding. In general terms: Fluorescence polarisation rises when a labelled molecule tumbles more slowly, as on binding a larger partner.
In experiment [2] the target is T2, SCRIB PDZ1 (SCRIB-1) (Homo sapiens, UniProt Q14160). As to the kind of experiment: Fluorescence polarization competition, SCRIB-1. The experiment is classed as binding.
In the next experiment the target is SNX27 PDZ (SNX27) (Rattus norvegicus, UniProt Q8K4V4). As to the kind of experiment: Fluorescence polarization competition, SNX27. The experiment is classed as binding.
Experiment [3] has as its target T3, MAGI1 PDZ2 (MAGI1–2) (Homo sapiens, UniProt Q96QZ7). As to the kind of experiment: Fluorescence polarization competition. The experiment is classed as binding.
Experiment [4] concerns the target T4, PTPN3 PDZ (PTPN3) (Homo sapiens, UniProt P26045).
T4 sequence (P26045 505-597): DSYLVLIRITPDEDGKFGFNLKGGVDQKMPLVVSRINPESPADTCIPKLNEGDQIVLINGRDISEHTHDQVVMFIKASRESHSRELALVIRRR
The experiment in a line: Fluorescence polarization competition. The experiment is classed as binding.

The target in another experiment is T5, NHERF1 PDZ1 (N1P1) (Homo sapiens, UniProt O14745).
T5 sequence (O14745 1-139): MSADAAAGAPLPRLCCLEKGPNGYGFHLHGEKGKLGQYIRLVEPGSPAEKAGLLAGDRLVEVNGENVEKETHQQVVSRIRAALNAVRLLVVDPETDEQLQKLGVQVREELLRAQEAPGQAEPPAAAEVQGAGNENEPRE
As to the kind of experiment: Fluorescence polarization competition, N1P1.

The target of another experiment is NHERF2 PDZ2 (N2P2) (Homo sapiens, UniProt Q15599). As to the kind of experiment: Fluorescence polarization competition, N2P2.
For experiment [5], the target named is T1, DLG1 PDZ1 (DLG1–1). As to the kind of experiment: Fluorescence polarization direct binding of reporter peptide, DLG1–1.
Experiment [6] has as its target T3, MAGI1 PDZ2 (MAGI1–2). The experiment in a line: Fluorescence polarization direct binding of reporter peptide, MAGI1–2.
In experiment [7] the target is T4, PTPN3 PDZ (PTPN3). As to the kind of experiment: Fluorescence polarization direct binding of reporter peptide, PTPN3.
Experiment [8] deals with T2, SCRIB PDZ1 (SCRIB-1). The experiment in a line: Fluorescence polarization direct binding of reporter peptide, SCRIB-1.
For a further experiment, the target named is T6, TIP-1 PDZ (Homo sapiens, UniProt O14907).
T6 sequence (O14907 9-120): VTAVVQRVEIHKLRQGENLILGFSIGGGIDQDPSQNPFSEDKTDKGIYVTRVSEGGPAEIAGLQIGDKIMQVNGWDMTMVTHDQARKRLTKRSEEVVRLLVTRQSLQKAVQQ
As to the kind of experiment: Fluorescence polarization competition, TIP-1 PDZ.

For another experiment, the target named is CAL PDZ (Homo sapiens, UniProt Q9HD26). The experiment in a line: Fluorescence polarization competition, CAL PDZ.

The term Ki denotes the equilibrium dissociation constant of an inhibitor or competing ligand from its target. The low end stands for a stronger hold on the target, the high end for a looser hold on the target. What is called IC50 is the concentration needed to halve the response being measured. A word on the Kd: it is the equilibrium constant for the complex coming apart.

Residues, ends and D or L forms follow the SMILES beside them.

Regarding `CC(C)C[C@H](NC(=O)[C@H](CCC(N)=O)NC(=O)[C@@H](NC(=O)[C@H](CC(=O)O)NC(=O)[C@H](CCC(N)=O)NC(=O)[C@@H](NC(=O)[C@@H](NC(=O)[C@H](CCCNC(=N)N)NC(=O)[C@H](CO)NC(=O)[C@@H](N)CO)[C@@H](C)O)C(C)C)[C@@H](C)O)C(=O)O` [CFTRP1Q] (H-SSRTVQDTQL-OH), the Ki at DLG1 PDZ1 (DLG1–1) [1] was found to be 250 ± 150 µM; on SCRIB PDZ1 (SCRIB-1) [2], 150 ± 60 µM; on SNX27 PDZ (SNX27), 0.26 ± 0.05 µM; at NHERF1 PDZ1 (N1P1) it was 25 ± 7 µM; on NHERF2 PDZ2 (N2P2), 3.1 ± 0.5 µM. Moreover, the IC50 at MAGI1 PDZ2 (MAGI1–2) [3] is 420 ± 210 µM; at PTPN3 PDZ (PTPN3) [4] it was 51 ± 14 µM.
`CC(C)C[C@H](NC(=O)[C@H](CCCNC(=N)N)NC(=O)[C@@H](NC(=O)[C@H](CC(=O)O)NC(=O)[C@H](CCCNC(=N)N)NC(=O)[C@@H](NC(=O)[C@@H](NC(=O)[C@H](CCCNC(=N)N)NC(=O)[C@H](CO)NC(=O)[C@@H](N)CO)[C@@H](C)O)C(C)C)[C@@H](C)O)C(=O)O` [CFTRP4R] (H-SSRTVRDTRL-OH): the Ki is 510 ± 230 µM on DLG1 PDZ1 (DLG1–1) [1]; 370 ± 170 µM on SCRIB PDZ1 (SCRIB-1) [2]; 0.44 ± 0.06 µM at SNX27 PDZ (SNX27); 6.9 ± 2.7 µM at NHERF1 PDZ1 (N1P1); 1.7 ± 0.5 µM at NHERF2 PDZ2 (N2P2). Also, the values for the IC50 on MAGI1 PDZ2 (MAGI1–2) [3] and at PTPN3 PDZ (PTPN3) [4] were 460 ± 200 µM and 85 ± 39 µM, respectively.
On to `CC(C)C[C@H](NC(=O)[C@H](CCCNC(=N)N)NC(=O)[C@@H](NC(=O)[C@H](CC(=O)O)NC(=O)[C@H](CCC(N)=O)NC(=O)[C@H](CCCNC(=N)N)NC(=O)[C@@H](NC(=O)[C@H](CCCNC(=N)N)NC(=O)[C@H](CO)NC(=O)[C@@H](N)CO)[C@@H](C)O)[C@@H](C)O)C(=O)O` [CFTRP5R] (H-SSRTRQDTRL-OH), for which the Ki on DLG1 PDZ1 (DLG1–1) [1] amounted to 430 ± 200 µM; on SCRIB PDZ1 (SCRIB-1) [2] it was 50 ± 10 µM; at SNX27 PDZ (SNX27) it was 7.4 ± 4.5 µM; at NHERF1 PDZ1 (N1P1) it was 1.8 ± 0.3 µM; at NHERF2 PDZ2 (N2P2) it was 0.49 ± 0.38 µM. Moreover, the IC50 is 220 ± 50 µM at MAGI1 PDZ2 (MAGI1–2) [3] and 120 ± 20 µM at PTPN3 PDZ (PTPN3) [4].
For `CC(C)C[C@H](NC(=O)[C@H](CCC(N)=O)NC(=O)[C@@H](NC(=O)[C@H](CCC(=O)O)NC(=O)[C@H](CCCNC(=N)N)NC(=O)[C@H](CCCNC(=N)N)NC(=O)[C@@H](NC(=O)[C@H](CCCNC(=N)N)NC(=O)[C@H](CO)NC(=O)[C@H](CO)NC(=S)Nc1ccc2c(c1)C(=O)OC21c2ccc(O)cc2Oc2cc(O)ccc21)[C@@H](C)O)[C@@H](C)O)C(=O)O` [F*-HPV16 E6], the dissociation constant Kd on DLG1 PDZ1 (DLG1–1) [5] was 17 ± 4 µM; at MAGI1 PDZ2 (MAGI1–2) [6] it was 12 ± 4 µM; on PTPN3 PDZ (PTPN3) [7], 2 ± 1 µM; on SCRIB PDZ1 (SCRIB-1) [8] it was 5.1 ± 1.7 µM.
With `CC(C)C[C@H](NC(=O)[C@H](CCC(N)=O)NC(=O)[C@@H](NC(=O)[C@H](CCC(=O)O)NC(=O)[C@H](CCCNC(=N)N)NC(=O)[C@H](CCCNC(=N)N)NC(=O)[C@@H](NC(=O)[C@H](CCCNC(=N)N)NC(=O)[C@H](CO)NC(=O)[C@@H](N)CO)[C@@H](C)O)[C@@H](C)O)C(=O)O` [HPV16 E6], the Ki on DLG1 PDZ1 (DLG1–1) [1] was 22 ± 12 µM; at SCRIB PDZ1 (SCRIB-1) [2], 20 ± 7 µM; at SNX27 PDZ (SNX27), 1.5 ± 0.5 µM; on NHERF1 PDZ1 (N1P1), 100 ± 50 µM; on NHERF2 PDZ2 (N2P2), 17 ± 6 µM; on TIP-1 PDZ, 11 ± 1 µM. The figures for the IC50 on MAGI1 PDZ2 (MAGI1–2) [3] and at PTPN3 PDZ (PTPN3) [4] were 3.7 ± 0.1 µM and 10.1 µM, respectively.
For `CC(C)C[C@H](NC(=O)[C@H](CCCNC(=N)N)NC(=O)[C@@H](NC(=O)[C@H](CCC(=O)O)NC(=O)[C@H](CCCNC(=N)N)NC(=O)[C@H](CCCNC(=N)N)NC(=O)[C@@H](NC(=O)[C@H](CCCNC(=N)N)NC(=O)[C@H](CO)NC(=O)[C@@H](N)CO)[C@@H](C)O)[C@@H](C)O)C(=O)O` [HPVP1R] (H-SSRTRRETRL-OH), the Ki at DLG1 PDZ1 (DLG1–1) [1] came out at 39 ± 11 µM; at SCRIB PDZ1 (SCRIB-1) [2] it was 13 ± 2 µM; at SNX27 PDZ (SNX27) it was 2.1 ± 0.7 µM; on NHERF1 PDZ1 (N1P1), 8.8 ± 3.4 µM; at NHERF2 PDZ2 (N2P2) it was 6.9 ± 1.1 µM; at CAL PDZ it was 42 ± 10 µM. The compound further displayed a Ki at TIP-1 PDZ of 22 ± 5 µM. Moreover, the IC50 worked out at 5.2 ± 2.4 µM on MAGI1 PDZ2 (MAGI1–2) [3] and 18 ± 1 µM on PTPN3 PDZ (PTPN3) [4].
With `CC(C)C[C@H](NC(=O)[C@H](CCC(N)=O)NC(=O)[C@@H](NC(=O)[C@H](CCC(=O)O)NC(=O)[C@H](CCC(N)=O)NC(=O)[C@H](CCCNC(=N)N)NC(=O)[C@@H](NC(=O)[C@H](CCCNC(=N)N)NC(=O)[C@H](CO)NC(=O)[C@@H](N)CO)[C@@H](C)O)[C@@H](C)O)C(=O)O` [HPVP4Q] (H-SSRTRQETQL-OH), the Ki on DLG1 PDZ1 (DLG1–1) [1] is 23 ± 6 µM; at SCRIB PDZ1 (SCRIB-1) [2], 13 ± 2 µM; at SNX27 PDZ (SNX27), 0.51 ± 0.22 µM; on NHERF1 PDZ1 (N1P1), 21 ± 7 µM; at NHERF2 PDZ2 (N2P2), 5.2 ± 0.6 µM; at CAL PDZ it was 56 ± 6 µM. For the same compound, the Ki at TIP-1 PDZ came out at 34 ± 2 µM. In addition, the figures for the IC50 at MAGI1 PDZ2 (MAGI1–2) [3] and on PTPN3 PDZ (PTPN3) [4] were 3.8 ± 2.1 µM and 18 ± 5 µM, respectively.
For `CC(C)C[C@H](NC(=O)[C@H](CCC(N)=O)NC(=O)[C@@H](NC(=O)[C@H](CCC(=O)O)NC(=O)[C@H](CCCNC(=N)N)NC(=O)[C@@H](NC(=O)[C@@H](NC(=O)[C@H](CCCNC(=N)N)NC(=O)[C@H](CO)NC(=O)[C@@H](N)CO)[C@@H](C)O)C(C)C)[C@@H](C)O)C(=O)O` [HPVP5V] (H-SSRTVRETQL-OH), the Ki at DLG1 PDZ1 (DLG1–1) [1] was determined as 13 ± 4 µM; on SCRIB PDZ1 (SCRIB-1) [2], 4.5 ± 2.8 µM; at SNX27 PDZ (SNX27) it was 0.11 ± 0.03 µM; at NHERF1 PDZ1 (N1P1) it was 67 ± 28 µM; on NHERF2 PDZ2 (N2P2), 7 ± 3.6 µM; at CAL PDZ, 190 ± 10 µM. This compound had a Ki at TIP-1 PDZ of 35 ± 4 µM. In addition, the figures for the IC50 on MAGI1 PDZ2 (MAGI1–2) [3] and at PTPN3 PDZ (PTPN3) [4] were 4.4 ± 1.1 µM and 3.4 ± 0.3 µM, respectively.
